# Tested on: SRD1 transcript
# Test: Transcriptional regulation of SRD1 in response to exogenous IAA in fibrous roots of single-leaf plantlets (real-time RT-PCR)
# Assay type: in vivo, sweetpotato
# Details: for transcript level of SRD1: fibrous roots, 25° C. in the dark, FIG. 7A; for transcript level of SRD1 (time course): FIG. 7B
# Protocol: To determine the transcriptional regulation of SRD1, SRD1-specific primers [5′-[…]-3′(SEQ ID NO.: 10) and 5′-GTGCACGAAACTCCCCTT-3′(SEQ ID NO.: 11)] were designed to contain nucleotide 180 (the nucleotide showing an SNP between SRD1 and IbMADS1) and the 3 bp deletion region in SRD1 at the 3′ end of the forward primer and at the 3′ end of the reverse primer, respectively (FIG. 1).
# The roots of sweetpotato were treated with IAA according to the following method. Sweetpotato plantlets bearing a single leaf and petiole (single-leaf plantlets) were collected from sweetpotato plants and incubated in flasks containing distilled water for 3 weeks. After fibrous roots had developed from the distal end of the petiole, the single-leaf plantlets were incubated in various concentrations of IAA (0, 50, 500, 1000, 2000 μM) at 25° C. in the dark for various time periods (0-24 h). After the hormone treatment, total RNA was extracted from the fibrous roots using the RNeasy Plant Mini Kit™ (Qiagen) and used for real-time and semi-quantitative reverse transcription-PCR (RT-PCR).
# Total RNA (5 μg) was used for first-strand cDNA synthesis using the SuperScript III first-strand cDNA synthesis kit (Invitrogen). The resulting cDNA solution was then diluted with 30 μl of TE (10 mM TRIS-HCl, pH 8.0, 1 mM EDTA). The primers for real-time RT-PCR were as follows: SRD1 (5′-[…]-3′; SEQ ID NO.: 10), 5′-GTGCACGAAACTCCCCTT-3′; SEQ ID NO. 11). Real-time PCR analysis was performed using the LightCycler 480 quantification system (Roche Diagnostics) according to the manufacturer's instructions. Expression levels were normalized with β-tubulin expression amplified with 5′-[…]-3′ (SEQ ID NO.: 12) and 5′-[…]-3′ (SEQ ID NO.: 13) primers. PCR were performed starting with pre-denaturation at 95° C. for 10 min before 45 cycles of denaturation at 95° C. for 10 sec, annealing at 58° C. for 10 sec and extension at 72° C. for 20 sec. Following the amplification phase, a melting curve analysis was conducted from 65° C. to 97° C. The second derivative maximum method in the LightCycler 480 quantification software (Roche Diagnostics) was used to evaluate the data.
smiles,measurement,setting,value
"O=C(O)Cc1c[nH]c2ccccc12 [IAA, Indole-3-acetic acid]",transcript level of SRD1,50 μM IAA,decreased
same,transcript level of SRD1 (time course),"500 μM IAA, 0.5 h after treatment",decreased compared with the control
same,transcript level of SRD1 (time course),"500 μM IAA, 1 h after treatment",decreased compared with the control
same,transcript level of SRD1 (time course),"500 μM IAA, 3 h after treatment",decreased compared with the control
same,transcript level of SRD1 (time course),"500 μM IAA, 6 h after treatment",increased sharply
same,transcript level of SRD1 (time course),"500 μM IAA, 12 h after treatment",decreased compared with the control
same,transcript level of SRD1 (time course),"500 μM IAA, 24 h after treatment",decreased compared with the control
same,transcript level of SRD1,500 μM IAA,decreased
same,transcript level of SRD1,1000 μM IAA,increased sharply
same,transcript level of SRD1,2000 μM IAA,decreased to almost the same level as that observed at 0 μM IAA

# From patent publication US8618357B2, “Sweetpotato SRD1 cDNA and transgenic plants with high-numbered storage roots using the same” (Korea University Research and Business Foundation, priority 2010, dated 2013)
